What was measured:
Assay type in all cases: cell-based
[1] = tested on: Pseudomonas aeruginosa (ATCC strain 9027); settings: summary in description
Description: Bacterial Stocks—ATCC derived stock bacteria were obtained from Oxoid Limited. Pseudomonas aeruginosa (ATCC strain 9027) or Staphylococcus aureus (ATCC strain 6538P) were obtained in ‘Cultiloop’ format. Stocks were prepared by inoculating 20 ml of LB broth with a single Cultiloop, and incubating overnight at 37° C. Cells present after overnight incubation were harvested by removing larger aggregates by centrifugation (3000 g, 10 minutes), and withdrawing 16 ml of the supernatant, which was likely to contain mainly planktonic bacteria. To this, 4 ml of sterile glycerol was added (the latter having been sterilised by autoclaving). The resultant suspension was divided between 15× 1 ml cryovials before freezing at −85° C.
Preliminary experiments were carried out to estimate the amount to dilute bacterial stocks which when on addition of 25 μl of diluted stock to 100 μl of fresh LB broth would result in bacteria in log phase growth after overnight incubation at 37° C.
The peptides were examined for antibacterial efficacy against Staphylococcus aureus. To test the efficacy of peptides, dilutions of test peptides or PBS (for use as a control) were prepared in LB broth, and 100 μl aliquots of these placed in 96-well plates. A vial of planktonic bacterial stock was thawed in a 37° C. incubator and diluted to the level previously determined which would produce log phase growth after overnight incubation (see above). 25 μl of this bacterial dilution was then added to the test wells (some wells containing LB broth without peptide were left without any bacterial inoculation, these being used as a blank). After overnight growth, the concentration of bacteria in individual wells was assessed by measuring absorbance at 620 nm, in a microplate spectrophotometer. The average absorbance of wells for specific concentrations of peptides was calculated, and from this the percentage inhibition (relative to untreated wells) was also calculated and plotted against concentration (along with an estimate of error on that % inhibition).
Peptides in accordance with the invention were also examined for antibacterial efficacy against Pseudomonas aeruginosa using the same technique as described above to calculate the IC50 values.
Points were obtained by dividing the average for six treated wells by the average for six untreated wells, and bars show an estimate of the error for these calculated values.
The inventor constructed an expanded library of peptides derived from either apolipoprotein B or apolipoprotein E in order to further evaluate polypeptides in accordance with the invention. Further experiments were then conducted to investigate the antibacterial activity of this peptide library against the bacteria P. aeroginosa, S. aureus and S. pneumoniae. The methods used to determine the IC50 values for each peptide were as described in the Example 1.

Pseudomonas aeruginosa = assay: Antibacterial efficacy on peptide pre-treated contact lenses; settings: lens pre-treated with 250 μM peptide for 2 hours
Description: Referring to FIG. 2, there is shown a bar graph illustrating growth of Pseudomonas aeruginosa overnight on Johnson and Johnson Acuvue contact lenses following pre-treatment with polypeptide GIN 1p, or a control treatment. Growth was measured by examination by light microscopy, and by assessing metabolic activity of any bacteria present using MTT reduction. The data illustrates the efficacy of the antibacterial nature of the peptides according to the invention when applied to contact lenses. Antibacterial activity was assessed by measuring MTT reduction.
Lenses were placed in 24-well plates before treatment with 75 μl of 250 μM GIN-1p in PBS (pH7.4) or with 75 μl of PBS and incubated for 2 hours at […], before removal of these solutions from the lens by aspiration. A further 1 ml of PBS was then added to the wells to wash away any loosely attached peptide, before aspiration of this wash solution. […]
The plates were returned to the incubator at 37° C. overnight. […] The degree of formazan production was assessed by measuring absorbance at 540 nm for aliquots of these solutions; these values are shown in FIG. 2, and represent the average for four lenses, with the bars showing standard deviation. […]

[2] = tested on: Saccharomyces cerevisiae yeast cells (strain GenT01); assay: Gentronix GreenScreen GC yeast genotoxicity assay; settings: concentrations up to and including 100 μM, FIGS. 6A-6C
Description: A liquid handling robot is used to produce a serial dilution series of each test compound in a 96-well, black microplate with an optically clear base. […] In addition, a series of genotoxic and cytotoxic standards and non-toxic controls are run to provide internal quality control. The plates are covered with a breathable membrane and incubated overnight, without shaking, at 25° C.
After incubation, the microplates are uncovered and data collected using a Tecan Ultra 384 microplate reader. This instrument provides measurements of light absorbance and fluorescence in microplates; a standard fluorescein filter set (excitation 485/25 and emission 535/25) is used. Absorbance is read at 620 nm and is proportional to cell proliferation (which is lowered by toxic analytes). Fluorescence is proportional to the activity of the DNA repair system (increased by genotoxic analytes). The yeast cultures used are a genetically modified strain that express a green fluorescent protein whenever the cells carry out DNA damage repair. Fluorescence is normalised to the absorbance signal to correct for variation in cell yield caused by any cytolytic activity of the test compounds against the yeast cells. This produces a “fluorescence per cell” measurement termed “brightness”. In addition to the Gentronix Assay yeast strain (GenT01), a control Saccharomyces cerevisiae strain (GenC01) is also used, which is identical except for its ability to produce green fluorescent protein is disabled. This strain is used to provide a control to allow correction for substances which may be either autofluorescent themselves or which induce an autofluorescence in the yeast cells. The data collected is simply transferred into a Excel template where result evaluation sheets are automatically produced. The sheets contain the processed results in both a graphical and tabulated format, with automatic assessment of the result, i.e. positive or negative, and calculation of the lowest effective concentration (LEC), for both genotoxicity and cytotoxicity. […]

Ac-LRKLRKRLLLRKLRKRLL-NH2 [MU_10]
Effectiveness against Pseudomonadales, in particular P. aeruginosa, in words [1]: particularly effective
Appearance of solution containing pre-treated contact lens after overnight incubation (Pseudomonas aeruginosa; 10^4 challenge organisms, FIG. 3): colourless
Bacterial growth on contact lens surface by light micrograph after overnight incubation (Pseudomonas aeruginosa; FIG. 4): minimal bacterial growth
Genotoxic response in test yeast strain (GenT01) [2]: failed to produce any genotoxic response

— patent publication US8524861B2, “Treatment of bacterial infections” (priority 2004, dated 2013)
